The source of these data is ChEMBL document CHEMBL1201862, “PubChem BioAssay data set” (2004).

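Results reflect a 48-hour exposure of cells in 96-well plates to compound at five concentrations. GI50 = concentration required for 50% inhibition of growth.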 Activity calls are given as the source filed them. No stated cut-off is given here; in the data, active = GI50 up to about 1.1 µM and inactive = higher.

Some test systems named below: BT-549; OVCAR-8; SN12C; HCT-116; ACHN; HL-60; HOP-62; MCF7; EKVX; SNB-75; HT-29; SF-295; SK-OV-3; SK-MEL-5; UACC-62; A549; K562; HCC 2998; SK-MEL-2; SF-539.
Experiment in all cases: NCI tumour cell line growth inhibition, 48 h

For `O=C1Nc2ccc(S(=O)(=O)O)cc2/C1=C1/Nc2ccc(Br)cc2C1=O`, the GI50 in the test with BT-549, in the test with OVCAR-8, in the test on SN12C, in the test on HCT-116, in the test on ACHN and with HL-60 was > 100 µM (inactive) throughout. The GI50 with HOP-62 was > 100 µM (inactive); in the test with MCF7, 72.8 µM (inactive); in the test with EKVX it was > 100 µM (inactive); in the test with SNB-75, > 100 µM (inactive); in the test with HT-29 it was > 100 µM (inactive); in the test with SF-295, > 100 µM (inactive). In addition, the GI50 in the test on SK-OV-3, with SK-MEL-5, in the test on UACC-62, with A549, with K562 and in the test with HCC 2998 was > 100 µM (inactive) each time. Further, the GI50 with SK-MEL-2 was > 100 µM (inactive).

In the case of `O=C(Cn1c(C(=O)/C=C/c2ccc(Cl)cc2)nc2ccccc21)c1ccc(Cl)cc1`, the GI50 with BT-549 is 24.5 µM (inactive); in the test with SN12C, 14.1 µM (inactive); in the test with HCT-116 it was 10.9 µM (inactive); in the test on ACHN it was 20.7 µM (inactive); in the test with HL-60, 10.1 µM (inactive); in the test with HOP-62, 16.4 µM (inactive). Further, the GI50 is 15.2 µM (inactive) with MCF7; 26.5 µM (inactive) in the test on EKVX; 15 µM (inactive) in the test on HT-29; 26.9 µM (inactive) in the test on SK-OV-3; 14.8 µM (inactive) with SK-MEL-5; 15.8 µM (inactive) with UACC-62. The GI50 was 21 µM (inactive) with A549; 18.3 µM (inactive) in the test with SF-539; 6.07 µM (inactive) with K562; 14.4 µM (inactive) with HCC 2998; 17.6 µM (inactive) with SK-MEL-2.

As for `CCOc1cc2c(cc1O)/C(=N\OC)C[C@@H]1[C@@H]2CC[C@]2(C)[C@@H](O)CC[C@@H]12`, the GI50 in the test with BT-549 was 1.71 µM (inactive); with OVCAR-8 it was 0.217 µM (active); with SN12C it was 0.372 µM (active); with HCT-116 it was < 0.0296 µM (active); in the test with ACHN it was 1.09 µM (active); with HL-60, 0.00548 µM (active). The GI50 with HOP-62 is < 0.0461 µM (active); with MCF7, 0.0238 µM (active); in the test with EKVX, 10.8 µM (inactive); with SNB-75, 0.0219 µM (active); in the test with HT-29 it was 3.81 µM (inactive); in the test with SK-OV-3 it was 0.243 µM (active). Also, the GI50 with SK-MEL-5 is < 0.0253 µM (active); with UACC-62 it was < 0.0306 µM (active); in the test with A549 it was 0.542 µM (active); in the test with K562, 0.0596 µM (active); with HCC 2998, 1.25 µM (inactive); with SK-MEL-2 it was < 0.0358 µM (active).

For the compound `COC(=O)C1C(O)C(C(=O)OC)C(C)N(C)C1C` (configuration not stated), the GI50 in the test with BT-549, in the test with OVCAR-8, in the test with SN12C, with HCT-116, with ACHN and in the test with HL-60 was > 100 µM (inactive) throughout. Moreover, the GI50 in the test on HOP-62, in the test on MCF7, in the test with EKVX, in the test on HT-29, with SF-295 and in the test on SK-OV-3 was > 100 µM (inactive) each time. Besides, the GI50 with SK-MEL-5, with UACC-62, with A549, in the test with SF-539, in the test with K562 and in the test on SK-MEL-2 was > 100 µM (inactive) throughout.

Consider `Cc1ccc(O)c(-c2cc(-c3cccc(Br)c3)c(C#N)c(N)n2)c1`, for which the GI50 in the test on BT-549 is 37.2 µM (inactive); with OVCAR-8 it was 32.3 µM (inactive); in the test with SN12C it was 21.5 µM (inactive); in the test with HCT-116, 20 µM (inactive); in the test on ACHN, 18.2 µM (inactive); in the test on HL-60, 30 µM (inactive). The GI50 is 34.6 µM (inactive) with HOP-62; 16.3 µM (inactive) with MCF7; 14.8 µM (inactive) in the test with EKVX; 23.9 µM (inactive) in the test on HT-29; 22.9 µM (inactive) in the test on SF-295; 31.9 µM (inactive) in the test with SK-OV-3. In addition, the GI50 was 19.2 µM (inactive) with SK-MEL-5; 16.4 µM (inactive) in the test with UACC-62; 27.6 µM (inactive) in the test with A549; 29.1 µM (inactive) with SF-539; 21.8 µM (inactive) with K562; 23.3 µM (inactive) in the test with HCC 2998. Also, the GI50 in the test on SK-MEL-2 was 20.7 µM (inactive).

Take `CCOP(=O)(OCC)C(N)c1ccc(Cl)cc1` (configuration not stated): the GI50 in the test with BT-549, with OVCAR-8, in the test with SN12C, in the test with HCT-116, in the test on ACHN and with HL-60 was > 100 µM (inactive) each time. The GI50 in the test on MCF7, in the test with EKVX, with HT-29, in the test with SK-MEL-5, in the test on UACC-62 and with A549 was > 100 µM (inactive) throughout. Also, the GI50 with SF-539 and in the test on SK-MEL-2 was > 100 µM (inactive) each time.

`CC(NC(=O)C(N)Cc1ccc(O)cn1)C(=O)O` (configuration not stated): the GI50 in the test with BT-549, in the test on OVCAR-8, with SN12C, in the test with HCT-116, in the test on ACHN and with HL-60 was > 100 µM (inactive) in each case. Also, the GI50 with HOP-62, with MCF7, in the test with EKVX, in the test on HT-29, with SF-295 and with SK-MEL-5 was > 100 µM (inactive) throughout. Moreover, the GI50 with A549, in the test with SF-539, in the test on K562 and in the test with HCC 2998 was > 100 µM (inactive) throughout.

Regarding `CCOC(=O)C1=c2[nH]c3cccc4cccc(c43)n2C(=O)CC1`, the GI50 is > 100 µM (inactive) in the test with BT-549; 56.5 µM (inactive) in the test with OVCAR-8; > 100 µM (inactive) in the test on SN12C; 45.6 µM (inactive) with HCT-116; > 100 µM (inactive) in the test on ACHN; 17.3 µM (inactive) in the test on HL-60. In addition, the GI50 in the test with HOP-62 is > 100 µM (inactive); in the test on MCF7, 36.2 µM (inactive); in the test with EKVX it was > 100 µM (inactive); in the test on SNB-75, > 100 µM (inactive); with SF-295, > 100 µM (inactive); in the test with SK-OV-3, > 100 µM (inactive). Besides, the GI50 in the test on SK-MEL-5 was 65.3 µM (inactive); in the test with UACC-62 it was > 100 µM (inactive); in the test with A549, > 100 µM (inactive); in the test with K562, > 100 µM (inactive); in the test on HCC 2998 it was 84.7 µM (inactive); in the test on SK-MEL-2, > 100 µM (inactive).

With `CCOc1ncn(-c2ccc(NC(=S)Nc3cnccn3)cc2)n1`, the GI50 in the test with BT-549, in the test on OVCAR-8, in the test on SN12C, with ACHN, in the test with HL-60 and in the test on MCF7 was > 10 µM (inactive) throughout. Moreover, the GI50 in the test with EKVX, with SNB-75, with HT-29, with SF-295, in the test with SK-OV-3 and in the test with UACC-62 was > 10 µM (inactive) each time. For the same compound, the GI50 with A549, in the test on SF-539, in the test with K562 and with SK-MEL-2 was > 10 µM (inactive) in each case.

Take `C#Cc1cc(-c2nc3ccccc3s2)ccc1N`: the GI50 in the test with BT-549 is 20 µM (inactive); with OVCAR-8 it was 29.2 µM (inactive); in the test with SN12C, 22 µM (inactive); with HCT-116, 16.6 µM (inactive); in the test on ACHN it was 24 µM (inactive); in the test on HL-60, 24.7 µM (inactive). Further, the GI50 was 37.3 µM (inactive) in the test with HOP-62; < 0.01 µM (active) in the test on MCF7; 19.1 µM (inactive) in the test on EKVX; 18 µM (inactive) in the test on HT-29; 20 µM (inactive) in the test on SF-295; 26.4 µM (inactive) in the test with SK-OV-3. Moreover, the GI50 with SK-MEL-5 was 26.6 µM (inactive); in the test with UACC-62 it was 17.5 µM (inactive); in the test on A549 it was 16.3 µM (inactive); in the test with SF-539, 32.2 µM (inactive); in the test with K562, 25.3 µM (inactive); in the test on HCC 2998 it was 10.3 µM (inactive). Besides, the GI50 in the test with SK-MEL-2 is 16.7 µM (inactive).

Take `CC(C)c1ccc(C(O)(C(=O)O)c2ccc(C(C)C)cc2)cc1`: the GI50 in the test with BT-549 was 91.6 µM (inactive); in the test on OVCAR-8, 54.1 µM (inactive); with SN12C, 46 µM (inactive); in the test on HCT-116, 36.6 µM (inactive); in the test with ACHN, 40.2 µM (inactive); with HL-60, 39.2 µM (inactive). In addition, the GI50 is 28.3 µM (inactive) in the test on HOP-62; 53.7 µM (inactive) in the test with MCF7; 51.8 µM (inactive) with EKVX; 42.7 µM (inactive) in the test with SNB-75; 48.9 µM (inactive) in the test on HT-29; 26.7 µM (inactive) with SF-295. The GI50 in the test on SK-OV-3 was 69.7 µM (inactive); in the test on SK-MEL-5, 56.8 µM (inactive); in the test with UACC-62, 44.6 µM (inactive); with A549, 33.1 µM (inactive); in the test on SF-539, > 100 µM (inactive); in the test with K562 it was 42.5 µM (inactive).
